# Measurements: patent US20230040770A1, “HETEROCYCLIC COMPOUND AND USE THEREOF” (TAKEDA PHARMACEUTICAL COMPANY LIMITED, priority 2019, published 2023)
# Molecular target: T1, human orexin type 2 receptor (Homo sapiens, UniProt O43614)
# T1 construct: expressed in transfected cells
# T1 sequence (O43614 1-444): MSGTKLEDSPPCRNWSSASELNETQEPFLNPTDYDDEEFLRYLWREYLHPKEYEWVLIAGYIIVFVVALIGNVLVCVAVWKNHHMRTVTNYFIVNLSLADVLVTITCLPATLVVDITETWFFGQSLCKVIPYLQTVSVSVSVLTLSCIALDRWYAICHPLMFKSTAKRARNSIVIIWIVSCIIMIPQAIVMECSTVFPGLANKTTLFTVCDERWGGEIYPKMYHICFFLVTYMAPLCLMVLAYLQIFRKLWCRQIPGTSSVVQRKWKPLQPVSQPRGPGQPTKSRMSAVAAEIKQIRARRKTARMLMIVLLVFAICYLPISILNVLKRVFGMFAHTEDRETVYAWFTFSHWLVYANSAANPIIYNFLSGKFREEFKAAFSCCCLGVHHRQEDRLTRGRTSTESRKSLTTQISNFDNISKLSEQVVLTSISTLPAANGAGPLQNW
# Test: Measurement of orexin type 2 receptor agonist activity (calcium indicator fluorescence, CHO cells forcibly expressing human OX2 receptor)
# Type: cell-based
# Settings: compound at 3 μM; 0% = DMSO, 100% = orexin A (human) 10 nM
# Description: To obtain a cell clone stably expressing human orexin type 2 receptor, human orexin type 2 receptor cDNA was inserted into pcDNA3.1(+) plasmid vector (Invitrogen), and a plasmid DNA for expression of human orexin type 2 receptor (pcDNA3.1(+)/hOX2R) was cloned. The plasmid DNA was introduced into CHO-dhfr cell by an electroporation method, and human orexin type 2 receptor expressing clone cells were obtained by limiting dilution method by using G418 drug resistance as a selection marker.
# CHO cells forcibly expressing human OX2 receptor were seeded in each well of 384 well black transparent bottom plate (BD Falcon) at 7,500 cells/well, and cultured for one day in a 5% CO2 incubator at 37° C. After removal of the medium in the cell plate, assay buffer A containing a calcium indicator (HBSS (Thermo Fisher Scientific), 20 mM HEPES (Thermo Fisher Scientific), 0.1% BSA (Sigma-Aldrich), 2.5 μg/mL Fluo-4 AM (DOJINDO Chemical), 0.08% Pluronic F127 (DOJINDO Chemical), 1.25 mM probenecid (DOJINDO Chemical)) was added at 30 μL/well. The plate was stood for 30 min in a 5% CO2 incubator at 37° C., and further stood at room temperature for 30 min. A test compound prepared by diluting with assay buffer B (HBSS, 20 mM HEPES, 0.1% BSA) was added at 10 μL/well, and the fluorescence value was measured by FDSSμCELL (Hamamatsu Photonics K.K.) every one sec for 1 min, and thereafter every two sec for […]. The activity (%) of the test compound was calculated assuming that variation in the fluorescence value when DMSO was added instead of the test compound was 0%, and variation in the fluorescence value when orexin A (human) (PEPTIDE INSTITUTE, INC.) was added at the final concentration of 10 nM was 100%.
row,Compound,"OX2R agonist activity (3 μM, %)"
1,"CCS(=O)(=O)N[C@@H]1[C@H](Cc2cccc(-c3cc(F)ccc3F)c2F)N(C(=O)C(C)C)CC1(F)F [Example 147, N-{(2S,3R)-4,4-difluoro-1-(2-methylpropanoyl)-2-[(2,2′,5′-trifluoro[1,1′-biphenyl]-3-yl)methyl]pyrrolidin-3-yl}ethanesulfonamide]",91%
2,"O=C(C1CCO1)N1CC(F)(F)[C@H](NS(=O)(=O)C2CC2)[C@@H]1Cc1cccc(-c2cc(F)cc(F)c2)c1F (stereo partly drawn) [Example 162, N-{(2S,3R)-4,4-difluoro-1-(oxetane-2-carbonyl)-2-[(2,3′,5′-trifluoro[1,1′-biphenyl]-3-yl)methyl]pyrrolidin-3-yl}cyclopropanesulfonamide]",92%
3,"CC(C)C(=O)N1CC(F)(F)[C@H](NS(=O)(=O)C2CC2)[C@@H]1Cc1cccc(-c2cccc(F)c2)c1F [Example 163, N-[(2S,3R)-2-[(2,3′-difluoro[1,1′-biphenyl]-3-yl)methyl]-4,4-difluoro-1-(2-methylpropanoyl)pyrrolidin-3-yl]cyclopropanesulfonamide]",105%
4,CC(C)C(=O)N1CC(F)(F)[C@H](NS(=O)(=O)C2CC2)[C@@H]1Cc1cccc(-c2cc(F)cc(F)c2)c1F [Example 166],98%
5,"CC(C)C(=O)N1CC(F)(F)[C@H](NS(=O)(=O)C2CC2)[C@@H]1Cc1cccc(-c2ccccc2)c1F [Example 171, N-[(2S,3R)-4,4-difluoro-2-[(2-fluoro[1,1′-biphenyl]-3-yl)methyl]-1-(2-methylpropanoyl)pyrrolidin-3-yl]cyclopropanesulfonamide]",99%
6,"CCS(=O)(=O)N[C@@H]1[C@H](Cc2cccc(-c3cccc(F)c3F)c2)N(C(=O)C2CCO2)CC1(F)F (stereo partly drawn) [Example 174, N -[(2S,3R)-2-[(2′,3′-difluoro[1,1′-biphenyl]-3-yl)methyl]-4,4-difluoro-1-(oxetane-2-carbonyl)pyrrolidin-3-yl]ethanesulfonamide]",90%
7,"CCS(=O)(=O)N[C@@H]1[C@H](Cc2cccc(-c3cccc(F)c3F)c2)N(C(=O)C2CCO2)CC1(F)F (stereo partly drawn) [Example 175, N-[(2S,3R)-2-[(2′,3′-difluoro[1,1′-biphenyl]-3-yl)methyl]-4,4-difluoro-1-(oxetane-2-carbonyl)pyrrolidin-3-yl]ethanesulfonamide]",95%
8,"CCS(=O)(=O)N[C@@H]1[C@H](Cc2cccc(-c3cccc(F)c3)c2F)N(C(=O)C2CC2)CC1(F)F [Example 202, N-{(2S,3R)-1-(cyclopropanecarbonyl)-2-[(2,3′-difluoro[1,1′-biphenyl]-3-yl)methyl]-4,4-difluoropyrrolidin-3-yl}ethanesulfonamide]",94%
9,"CCS(=O)(=O)N[C@@H]1[C@H](Cc2cccc(-c3cccc(F)c3F)c2F)N(C(=O)C2CC2)CC1(F)F [Example 204, N-{(2S,3R)-1-(cyclopropanecarbonyl)-4,4-difluoro-2-[(2,2′,3′-trifluoro[1,1′-biphenyl]-3-yl)methyl]pyrrolidin-3-yl}ethanesulfonamide]",89%
10,"CCS(=O)(=O)N[C@@H]1[C@H](Cc2cccc(-c3ccccc3)c2F)N(C(=O)C2CC2)CC1(F)F [Example 205, N-{(2S,3R)-1-(cyclopropanecarbonyl)-4,4-difluoro-2-[(2-fluoro[1,1′-biphenyl]-3-yl)methyl]pyrrolidin-3-yl}ethanesulfonamide]",91%
11,"CCS(=O)(=O)N[C@H]1[C@@H](F)CN(C(=O)C(C)(C)O)[C@H]1Cc1cccc(-c2cccc(F)c2)c1F [Example 207, N-[(2S,3R,4S)-2-[(2,3′-difluoro[1,1′-biphenyl]-3-yl)methyl]-4-fluoro-1-(2-hydroxy-2-methylpropanoyl)pyrrolidin-3-yl]ethanesulfonamide]",88%
12,"CCS(=O)(=O)N[C@H]1[C@@H](F)CN(C(=O)N(C)C)[C@H]1Cc1cccc(-c2cccc(F)c2)c1F [Example 210, (2S,3R,4S)-2-[(2,3′-difluoro[1,1′-biphenyl]-3-yl)methyl]-3-[(ethanesulfonyl)amino]-4-fluoro-N,N-dimethylpyrrolidine-1-carboxamide]",95%
13,"CCS(=O)(=O)N[C@H]1[C@@H](F)CN(C(=O)N2CCC2)[C@H]1Cc1cccc(-c2cccc(F)c2)c1F [Example 211, N-{(2S,3R,4S)-1-(azetidine-1-carbonyl)-2-[(2,3′-difluoro[1,1′-biphenyl]-3-yl)methyl]-4-fluoropyrrolidin-3-yl}ethanesulfonamide]",94%
14,"CCS(=O)(=O)N[C@H]1[C@@H](F)CN(C(=O)C2CC2)[C@H]1Cc1cccc(-c2cccc(F)c2)c1F [Example 212, N-{(2S,3R,4S)-1-(cyclopropanecarbonyl)-2-[(2,3′-difluoro[1,1′-biphenyl]-3-yl)methyl]-4-fluoropyrrolidin-3-yl}ethanesulfonamide]",96%
15,"CCS(=O)(=O)N[C@H]1[C@@H](F)CN(C(=O)C2CCO2)[C@H]1Cc1cccc(-c2cccc(F)c2)c1F (stereo partly drawn) [Example 216, N-[(2S,3R,4S)-2-[(2,3′-difluoro[1,1′-biphenyl]-3-yl)methyl]-4-fluoro-1-(oxetane-2-carbonyl)pyrrolidin-3-yl]ethanesulfonamide]",95%
16,"CCS(=O)(=O)N[C@H]1[C@@H](F)CN(C(=O)C2CCO2)[C@H]1Cc1cccc(-c2cccc(F)c2)c1F (stereo partly drawn) [Example 217, N-[(2S,3R,4S)-2-[(2,3′-difluoro[1,1′-biphenyl]-3-yl)methyl]-4-fluoro-1-(oxetane-2-carbonyl)pyrrolidin-3-yl]ethanesulfonamide]",96%
17,"CCS(=O)(=O)N[C@H]1[C@@H](F)CN(C(=O)C(C)(C)O)[C@H]1Cc1cccc(-c2cc(F)cc(F)c2)c1F [Example 220, N-{(2S,3R,4S)-4-fluoro-1-(2-hydroxy-2-methylpropanoyl)-2-[(2,3′,5′-trifluoro[1,1′-biphenyl]-3-yl)methyl]pyrrolidin-3-yl}ethanesulfonamide]",90%
18,"CCS(=O)(=O)N[C@H]1[C@@H](F)CN(C(=O)C(C)(C)O)[C@H]1Cc1cccc(-c2cccc(F)c2F)c1F [Example 222, N-{(2S,3R,4S)-4-fluoro-1-(2-hydroxy-2-methylpropanoyl)-2-[(2,2′,3′-trifluoro[1,1′-biphenyl]-3-yl)methyl]pyrrolidin-3-yl}ethanesulfonamide]",97%
19,"CCS(=O)(=O)N[C@@H]1[C@H](Cc2cccc(-c3cccc(F)c3)c2F)N(C(=O)[C@H]2C[C@@H](F)C2)CC1(F)F [Example 226, N-[(2S,3R)-2-[(2,3′-difluoro[1,1′-biphenyl]-3-yl)methyl]-4,4-difluoro-1-((1s,3R)-3-fluorocyclobutane-1-carbonyl)pyrrolidin-3-yl]ethanesulfonamide]",100%
20,"CCS(=O)(=O)N[C@@H]1[C@H](Cc2cccc(-c3ccccc3)c2F)N(C(=O)N2CCC2)CC1(F)F [Example 228, N-{(2S,3R)-1-(azetidine-1-carbonyl)-4,4-difluoro-2-[(2-fluoro[1,1′-biphenyl]-3-yl)methyl]pyrrolidin-3-yl}ethanesulfonamide]",99%
